One block for each compound: values may come before it.
Experiments:
Assay in all cases: Nanosyn kinase profiling
Type in all cases: biochemical
Details in all cases: read-out: Percentage inhibition; for inhibition at 0.1 µM: 0.1 µM inhibitor; for inhibition at 1 µM: 1 µM inhibitor
[1] = molecular target: T1, AKT2 (Homo sapiens, UniProt P31751)
T1 construct: purchased Nanosyn (enzymatic panel); SGC in-house recombinant human kinases (DSF panel); Invitrogen (ALK1-6)
Outline: (§1)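 Percent inhibition of each kinase was measured with the inhibitor at 0.1 µM and at 1 µM, as part of a 200-kinase human selectivity panel.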

[2] = molecular target: T2, CDK6/cycD3 (Homo sapiens, UniProt Q00534)
T2 construct: purchased Nanosyn (enzymatic panel); SGC in-house recombinant human kinases (DSF panel); Invitrogen (ALK1-6)
T2 sequence (Q00534 whole entry): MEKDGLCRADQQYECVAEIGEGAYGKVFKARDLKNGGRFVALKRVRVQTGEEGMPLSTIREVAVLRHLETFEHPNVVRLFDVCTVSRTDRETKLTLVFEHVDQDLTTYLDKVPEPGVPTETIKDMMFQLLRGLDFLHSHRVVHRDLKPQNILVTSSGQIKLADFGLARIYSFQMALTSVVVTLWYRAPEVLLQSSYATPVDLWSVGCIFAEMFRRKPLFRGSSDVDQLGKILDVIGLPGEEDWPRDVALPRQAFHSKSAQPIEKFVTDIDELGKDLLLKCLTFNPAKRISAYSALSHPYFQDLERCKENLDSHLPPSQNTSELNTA
T2 sequence (P30281 whole entry partner): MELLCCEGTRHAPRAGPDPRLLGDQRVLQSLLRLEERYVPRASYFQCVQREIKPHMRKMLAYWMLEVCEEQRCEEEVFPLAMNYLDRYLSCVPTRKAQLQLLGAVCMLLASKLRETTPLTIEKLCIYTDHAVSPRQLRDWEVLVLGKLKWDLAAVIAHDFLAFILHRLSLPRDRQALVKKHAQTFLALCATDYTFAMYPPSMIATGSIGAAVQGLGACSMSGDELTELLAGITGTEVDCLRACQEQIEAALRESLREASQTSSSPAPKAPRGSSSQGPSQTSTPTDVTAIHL
Outline: as §1

[3] = molecular target: T3, FGFR2 (Homo sapiens, UniProt P21802)
T3 construct: purchased Nanosyn (enzymatic panel); SGC in-house recombinant human kinases (DSF panel); Invitrogen (ALK1-6)
Outline: as §1

[4] = molecular target: T4, FGR (Homo sapiens, UniProt P09769)
T4 construct: purchased Nanosyn (enzymatic panel); SGC in-house recombinant human kinases (DSF panel); Invitrogen (ALK1-6)
Outline: as §1

[5] = molecular target: T5, GRK6 (Homo sapiens, UniProt P43250)
T5 construct: purchased Nanosyn (enzymatic panel); SGC in-house recombinant human kinases (DSF panel); Invitrogen (ALK1-6)
T5 sequence (P43250 whole entry): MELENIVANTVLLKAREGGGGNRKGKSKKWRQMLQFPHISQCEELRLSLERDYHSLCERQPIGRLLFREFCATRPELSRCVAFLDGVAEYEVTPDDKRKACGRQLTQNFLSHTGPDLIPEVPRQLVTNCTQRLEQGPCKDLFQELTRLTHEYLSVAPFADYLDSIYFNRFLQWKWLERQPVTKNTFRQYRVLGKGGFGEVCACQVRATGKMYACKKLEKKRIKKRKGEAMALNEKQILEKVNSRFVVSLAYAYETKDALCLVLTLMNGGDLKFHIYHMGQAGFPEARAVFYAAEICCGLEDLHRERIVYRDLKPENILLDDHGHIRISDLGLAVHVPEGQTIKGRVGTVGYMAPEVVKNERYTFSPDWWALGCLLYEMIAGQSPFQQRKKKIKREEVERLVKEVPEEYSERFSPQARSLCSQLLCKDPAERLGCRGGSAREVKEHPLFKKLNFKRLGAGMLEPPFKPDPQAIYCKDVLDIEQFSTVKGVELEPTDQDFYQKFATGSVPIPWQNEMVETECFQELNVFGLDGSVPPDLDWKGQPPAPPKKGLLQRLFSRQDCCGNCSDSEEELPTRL
Outline: as §1

[6] = molecular target: T6, HIPK1 (Homo sapiens, UniProt Q86Z02)
T6 construct: purchased Nanosyn (enzymatic panel); SGC in-house recombinant human kinases (DSF panel); Invitrogen (ALK1-6)
Outline: as §1

[7] = molecular target: T7, JNK2 (Homo sapiens, UniProt P45984)
T7 construct: purchased Nanosyn (enzymatic panel); SGC in-house recombinant human kinases (DSF panel); Invitrogen (ALK1-6)
Outline: as §1

[8] = molecular target: T8, LOK (Homo sapiens, UniProt O94804)
T8 construct: purchased Nanosyn (enzymatic panel); SGC in-house recombinant human kinases (DSF panel); Invitrogen (ALK1-6)
Outline: as §1

[9] = molecular target: T9, MAPK1 (Homo sapiens, UniProt P28482)
T9 construct: purchased Nanosyn (enzymatic panel); SGC in-house recombinant human kinases (DSF panel); Invitrogen (ALK1-6)
T9 sequence (P28482 whole entry): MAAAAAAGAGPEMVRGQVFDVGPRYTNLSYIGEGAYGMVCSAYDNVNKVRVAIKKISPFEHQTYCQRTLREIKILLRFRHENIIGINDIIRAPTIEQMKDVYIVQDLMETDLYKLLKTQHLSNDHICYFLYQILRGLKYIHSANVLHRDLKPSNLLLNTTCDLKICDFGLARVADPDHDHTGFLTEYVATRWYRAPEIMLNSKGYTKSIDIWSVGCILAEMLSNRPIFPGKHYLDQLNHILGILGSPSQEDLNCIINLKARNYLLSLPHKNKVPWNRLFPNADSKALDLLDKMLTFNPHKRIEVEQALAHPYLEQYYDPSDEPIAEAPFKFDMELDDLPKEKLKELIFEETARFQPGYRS
Outline: as §1

[10] = molecular target: T10, MARK3 (Homo sapiens, UniProt P27448)
T10 construct: purchased Nanosyn (enzymatic panel); SGC in-house recombinant human kinases (DSF panel); Invitrogen (ALK1-6)
Outline: as §1

[11] = molecular target: T11, MARK4 (Homo sapiens, UniProt Q96L34)
T11 construct: purchased Nanosyn (enzymatic panel); SGC in-house recombinant human kinases (DSF panel); Invitrogen (ALK1-6)
T11 sequence (Q96L34 1-752): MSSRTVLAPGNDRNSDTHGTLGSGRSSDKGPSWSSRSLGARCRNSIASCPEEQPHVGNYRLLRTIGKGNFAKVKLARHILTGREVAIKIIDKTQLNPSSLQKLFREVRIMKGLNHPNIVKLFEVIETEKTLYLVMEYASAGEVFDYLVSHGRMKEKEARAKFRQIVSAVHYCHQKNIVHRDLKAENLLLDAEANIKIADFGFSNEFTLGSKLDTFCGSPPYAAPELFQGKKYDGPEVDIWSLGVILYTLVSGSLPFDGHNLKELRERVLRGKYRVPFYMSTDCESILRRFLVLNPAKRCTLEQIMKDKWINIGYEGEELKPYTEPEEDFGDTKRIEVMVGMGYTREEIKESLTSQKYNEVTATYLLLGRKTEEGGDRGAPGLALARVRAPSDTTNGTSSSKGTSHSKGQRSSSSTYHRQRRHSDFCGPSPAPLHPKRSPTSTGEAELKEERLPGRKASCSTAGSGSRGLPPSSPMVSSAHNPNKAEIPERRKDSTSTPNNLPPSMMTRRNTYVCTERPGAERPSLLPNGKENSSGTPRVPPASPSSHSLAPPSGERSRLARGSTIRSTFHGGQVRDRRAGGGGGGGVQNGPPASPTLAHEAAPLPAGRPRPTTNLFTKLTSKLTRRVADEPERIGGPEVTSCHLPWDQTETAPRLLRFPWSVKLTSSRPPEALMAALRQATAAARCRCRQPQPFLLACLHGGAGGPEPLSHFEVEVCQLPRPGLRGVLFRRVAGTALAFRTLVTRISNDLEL
Outline: as §1

[12] = molecular target: T12, MEK1 (Homo sapiens, UniProt Q02750)
T12 construct: purchased Nanosyn (enzymatic panel); SGC in-house recombinant human kinases (DSF panel); Invitrogen (ALK1-6)
Outline: as §1

[13] = molecular target: T13, MKNK1 (Homo sapiens, UniProt Q9BUB5)
T13 construct: purchased Nanosyn (enzymatic panel); SGC in-house recombinant human kinases (DSF panel); Invitrogen (ALK1-6)
T13 sequence (Q9BUB5 whole entry): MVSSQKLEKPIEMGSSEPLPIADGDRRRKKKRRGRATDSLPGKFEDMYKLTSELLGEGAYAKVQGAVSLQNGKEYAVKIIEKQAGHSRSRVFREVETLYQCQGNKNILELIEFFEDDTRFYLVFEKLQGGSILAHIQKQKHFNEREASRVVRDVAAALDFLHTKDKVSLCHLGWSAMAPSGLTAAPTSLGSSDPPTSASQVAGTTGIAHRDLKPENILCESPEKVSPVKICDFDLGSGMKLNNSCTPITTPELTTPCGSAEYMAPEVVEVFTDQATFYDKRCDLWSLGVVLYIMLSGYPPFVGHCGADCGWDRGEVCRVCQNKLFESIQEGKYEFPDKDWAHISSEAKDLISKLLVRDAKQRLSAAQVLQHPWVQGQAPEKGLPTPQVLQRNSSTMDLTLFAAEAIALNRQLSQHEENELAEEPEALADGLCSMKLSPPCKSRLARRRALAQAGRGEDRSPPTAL
Outline: as §1

[14] = molecular target: T14, MNK2 (Homo sapiens, UniProt Q9HBH9)
T14 construct: purchased Nanosyn (enzymatic panel); SGC in-house recombinant human kinases (DSF panel); Invitrogen (ALK1-6)
Outline: as §1

[15] = molecular target: T15, PAK6 (Homo sapiens, UniProt Q9NQU5)
T15 construct: purchased Nanosyn (enzymatic panel); SGC in-house recombinant human kinases (DSF panel); Invitrogen (ALK1-6)
T15 sequence (Q9NQU5 whole entry): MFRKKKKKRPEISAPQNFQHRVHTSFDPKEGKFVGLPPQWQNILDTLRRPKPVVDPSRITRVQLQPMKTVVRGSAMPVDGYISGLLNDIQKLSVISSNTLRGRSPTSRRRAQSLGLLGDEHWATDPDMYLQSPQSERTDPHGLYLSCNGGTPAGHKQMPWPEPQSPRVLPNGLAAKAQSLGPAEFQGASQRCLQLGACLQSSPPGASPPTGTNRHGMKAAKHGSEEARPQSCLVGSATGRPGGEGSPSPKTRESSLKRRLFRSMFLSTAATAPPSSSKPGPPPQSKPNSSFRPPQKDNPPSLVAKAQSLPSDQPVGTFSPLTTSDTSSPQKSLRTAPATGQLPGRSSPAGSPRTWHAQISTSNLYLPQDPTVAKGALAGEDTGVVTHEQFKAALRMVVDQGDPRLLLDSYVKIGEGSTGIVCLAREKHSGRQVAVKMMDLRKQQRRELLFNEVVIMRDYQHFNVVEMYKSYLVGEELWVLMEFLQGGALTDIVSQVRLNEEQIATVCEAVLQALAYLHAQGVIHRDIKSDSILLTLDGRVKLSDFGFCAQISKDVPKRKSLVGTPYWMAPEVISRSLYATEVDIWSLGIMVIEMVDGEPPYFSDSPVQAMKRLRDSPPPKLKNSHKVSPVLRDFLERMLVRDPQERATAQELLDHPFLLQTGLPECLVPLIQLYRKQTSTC
Outline: as §1

[16] = molecular target: T16, PAR1Bα (Homo sapiens, UniProt Q7KZI7)
T16 construct: purchased Nanosyn (enzymatic panel); SGC in-house recombinant human kinases (DSF panel); Invitrogen (ALK1-6)
Outline: as §1

[17] = molecular target: T17, PIM3 (Homo sapiens, UniProt Q86V86)
T17 construct: purchased Nanosyn (enzymatic panel); SGC in-house recombinant human kinases (DSF panel); Invitrogen (ALK1-6)
Outline: as §1

[18] = molecular target: T18, PLK1 (Homo sapiens, UniProt P53350)
T18 construct: purchased Nanosyn (enzymatic panel); SGC in-house recombinant human kinases (DSF panel); Invitrogen (ALK1-6)
T18 sequence (P53350 whole entry): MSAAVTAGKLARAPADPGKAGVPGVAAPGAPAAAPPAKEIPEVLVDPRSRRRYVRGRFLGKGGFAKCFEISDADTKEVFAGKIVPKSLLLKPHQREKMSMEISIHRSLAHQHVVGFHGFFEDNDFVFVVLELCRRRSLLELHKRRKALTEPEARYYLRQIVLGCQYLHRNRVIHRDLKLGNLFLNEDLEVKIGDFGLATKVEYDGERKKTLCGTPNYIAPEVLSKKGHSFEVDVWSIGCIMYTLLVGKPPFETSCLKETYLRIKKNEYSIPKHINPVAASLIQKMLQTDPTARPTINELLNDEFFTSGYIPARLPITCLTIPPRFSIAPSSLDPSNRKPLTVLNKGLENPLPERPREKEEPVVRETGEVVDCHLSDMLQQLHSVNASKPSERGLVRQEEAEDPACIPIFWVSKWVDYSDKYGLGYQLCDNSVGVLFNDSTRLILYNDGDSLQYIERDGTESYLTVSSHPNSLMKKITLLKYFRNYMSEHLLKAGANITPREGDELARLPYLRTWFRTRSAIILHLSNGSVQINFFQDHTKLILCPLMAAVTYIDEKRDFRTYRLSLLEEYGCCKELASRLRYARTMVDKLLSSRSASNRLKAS
Outline: as §1

[19] = molecular target: T19, TNK2 (Homo sapiens, UniProt Q07912)
T19 construct: purchased Nanosyn (enzymatic panel); SGC in-house recombinant human kinases (DSF panel); Invitrogen (ALK1-6)
T19 sequence (Q07912 whole entry): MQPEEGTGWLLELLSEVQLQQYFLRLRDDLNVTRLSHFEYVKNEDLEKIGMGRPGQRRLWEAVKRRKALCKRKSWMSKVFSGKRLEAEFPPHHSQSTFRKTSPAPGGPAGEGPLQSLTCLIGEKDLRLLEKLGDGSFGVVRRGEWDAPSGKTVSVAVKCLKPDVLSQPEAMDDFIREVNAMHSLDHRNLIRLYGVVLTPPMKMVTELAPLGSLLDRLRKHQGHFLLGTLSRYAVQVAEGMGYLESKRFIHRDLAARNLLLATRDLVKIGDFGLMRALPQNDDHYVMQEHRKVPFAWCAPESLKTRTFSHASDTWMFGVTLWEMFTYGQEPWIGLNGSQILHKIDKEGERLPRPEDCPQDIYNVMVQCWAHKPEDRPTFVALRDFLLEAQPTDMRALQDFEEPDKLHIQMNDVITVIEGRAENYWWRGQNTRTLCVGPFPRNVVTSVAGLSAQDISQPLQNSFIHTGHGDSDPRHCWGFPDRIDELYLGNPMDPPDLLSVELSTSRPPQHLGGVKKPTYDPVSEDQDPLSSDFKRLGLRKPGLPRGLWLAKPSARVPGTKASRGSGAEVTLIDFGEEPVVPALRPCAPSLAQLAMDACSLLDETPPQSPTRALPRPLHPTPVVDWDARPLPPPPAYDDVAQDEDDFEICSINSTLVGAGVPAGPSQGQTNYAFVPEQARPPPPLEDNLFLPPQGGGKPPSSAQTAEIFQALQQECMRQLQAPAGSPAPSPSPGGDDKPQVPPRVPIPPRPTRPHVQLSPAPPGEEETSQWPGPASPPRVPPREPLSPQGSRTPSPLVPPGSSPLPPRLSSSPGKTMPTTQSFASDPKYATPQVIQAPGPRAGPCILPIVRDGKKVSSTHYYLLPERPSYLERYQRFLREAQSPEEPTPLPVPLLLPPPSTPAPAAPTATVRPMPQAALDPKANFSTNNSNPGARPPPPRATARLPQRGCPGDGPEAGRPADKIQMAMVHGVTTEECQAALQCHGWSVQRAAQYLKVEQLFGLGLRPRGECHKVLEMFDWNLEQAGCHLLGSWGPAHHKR
Outline: as §1

[20] = molecular target: T20, TRKC (Homo sapiens, UniProt Q16288)
T20 construct: purchased Nanosyn (enzymatic panel); SGC in-house recombinant human kinases (DSF panel); Invitrogen (ALK1-6)
Outline: as §1

[21] = molecular target: T21, TSSK2 (Homo sapiens, UniProt Q96PF2)
T21 construct: purchased Nanosyn (enzymatic panel); SGC in-house recombinant human kinases (DSF panel); Invitrogen (ALK1-6)
T21 sequence (Q96PF2 1-358): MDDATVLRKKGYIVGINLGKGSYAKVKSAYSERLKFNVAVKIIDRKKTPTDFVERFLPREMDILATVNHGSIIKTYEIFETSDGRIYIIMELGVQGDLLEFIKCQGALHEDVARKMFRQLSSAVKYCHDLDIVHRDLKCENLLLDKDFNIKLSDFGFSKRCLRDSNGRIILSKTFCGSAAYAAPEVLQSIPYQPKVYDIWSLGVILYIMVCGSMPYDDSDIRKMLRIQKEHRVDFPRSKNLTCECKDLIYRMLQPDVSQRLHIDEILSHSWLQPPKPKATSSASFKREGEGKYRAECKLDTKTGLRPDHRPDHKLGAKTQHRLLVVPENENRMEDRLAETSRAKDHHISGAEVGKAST
Outline: as §1

[22] = molecular target: T22, YES (Homo sapiens, UniProt P07947)
T22 construct: purchased Nanosyn (enzymatic panel); SGC in-house recombinant human kinases (DSF panel); Invitrogen (ALK1-6)
Outline: as §1

inhibition at 0.1 µM [1]: -2%
inhibition at 1 µM [1]: -1%
inhibition at 0.1 µM [2]: 1.7%
inhibition at 1 µM [2]: 2.8%
inhibition at 0.1 µM [3]: 0.3%
inhibition at 1 µM [3]: 1.1%
inhibition at 0.1 µM [4]: 6.7%
inhibition at 1 µM [4]: 37%
inhibition at 0.1 µM [5]: 0.2%
inhibition at 1 µM [5]: 1.4%
inhibition at 0.1 µM [6]: 1.7%
inhibition at 1 µM [6]: 3.1%
inhibition at 0.1 µM [7]: 0.9%
inhibition at 1 µM [7]: 0%
inhibition at 0.1 µM [8]: 3.5%
inhibition at 1 µM [8]: 25%
inhibition at 0.1 µM [9]: -3%
inhibition at 1 µM [9]: 9.9%
inhibition at 0.1 µM [10]: 2.6%
inhibition at 1 µM [10]: 5.6%
inhibition at 0.1 µM [11]: 2.4%
inhibition at 1 µM [11]: 7.2%
inhibition at 0.1 µM [12]: -1%
inhibition at 1 µM [12]: 10%
inhibition at 0.1 µM [13]: 0.7%
inhibition at 1 µM [13]: 1.3%
inhibition at 0.1 µM [14]: 1.9%
inhibition at 1 µM [14]: 3.2%
inhibition at 0.1 µM [15]: 0.8%
inhibition at 1 µM [15]: 1.9%
inhibition at 0.1 µM [16]: 2.3%
inhibition at 1 µM [16]: 7%
inhibition at 0.1 µM [17]: 2.3%
inhibition at 1 µM [17]: 5.9%
inhibition at 0.1 µM [18]: -2%
inhibition at 1 µM [18]: -2%
inhibition at 0.1 µM [19]: 3.6%
inhibition at 1 µM [19]: 31%
inhibition at 0.1 µM [20]: 2.7%
inhibition at 1 µM [20]: 2.4%
inhibition at 0.1 µM [21]: -1%
inhibition at 1 µM [21]: -3%
inhibition at 0.1 µM [22]: 4.9%
inhibition at 1 µM [22]: 34%
Compound: COc1cc(-c2cc(-c3cccc(O)c3)cnc2N)cc(OC)c1OC [K02288, 3-[6-amino-5-(3,4,5-trimethoxy-phenyl)-pyridin-3-yl]-phenol]

Compound: c1ccc2c(-c3cnn4cc(-c5ccc(N6CCNCC6)cc5)cnc34)ccnc2c1 [LDN-193189]
inhibition at 0.1 µM [1]: 1%
inhibition at 1 µM [1]: 1.8%
inhibition at 0.1 µM [2]: 7.2%
inhibition at 1 µM [2]: 22%
inhibition at 0.1 µM [3]: 5%
inhibition at 1 µM [3]: 18%
inhibition at 0.1 µM [4]: 13%
inhibition at 1 µM [4]: 53%
inhibition at 0.1 µM [5]: 0%
inhibition at 1 µM [5]: 0.2%
inhibition at 0.1 µM [6]: 0.6%
inhibition at 1 µM [6]: 4.4%
inhibition at 0.1 µM [7]: 3.9%
inhibition at 1 µM [7]: 1.3%
inhibition at 0.1 µM [8]: 8.3%
inhibition at 1 µM [8]: 38%
inhibition at 0.1 µM [9]: 2.6%
inhibition at 1 µM [9]: 1.4%
inhibition at 0.1 µM [10]: 11%
inhibition at 1 µM [10]: 63%
inhibition at 0.1 µM [11]: 13%
inhibition at 1 µM [11]: 61%
inhibition at 0.1 µM [12]: 1.4%
inhibition at 1 µM [12]: 1%
inhibition at 0.1 µM [13]: 7.1%
inhibition at 1 µM [13]: 37%
inhibition at 0.1 µM [14]: 3.7%
inhibition at 1 µM [14]: 31%
inhibition at 0.1 µM [15]: 8.8%
inhibition at 1 µM [15]: 5.1%
inhibition at 0.1 µM [16]: 6.9%
inhibition at 1 µM [16]: 43%
inhibition at 0.1 µM [17]: 2%
inhibition at 1 µM [17]: -1%
inhibition at 0.1 µM [18]: 0.8%
inhibition at 1 µM [18]: 1.3%
inhibition at 0.1 µM [19]: 2%
inhibition at 1 µM [19]: 10%
inhibition at 0.1 µM [20]: 1.6%
inhibition at 1 µM [20]: 3.9%
inhibition at 0.1 µM [21]: 0%
inhibition at 1 µM [21]: 0.5%
inhibition at 0.1 µM [22]: 12%
inhibition at 1 µM [22]: 50%
